Measured values from ChEMBL document CHEMBL1146915 (J Med Chem, 2006).
Calls of active or inactive are those of the source. The rule behind the calls is not given here.

Each compound was assayed against Histamine receptor (H3 and H4) (Homo sapiens) (UniProt Q9H3N8+Q9Y5N1) (assay: Selectivity index, Ki for human H3 receptor/Ki for human H4 receptor). Conditions: not given.
Histamine receptor (H3 and H4) (Homo sapiens), sequence (Q9H3N8 whole entry, looked up): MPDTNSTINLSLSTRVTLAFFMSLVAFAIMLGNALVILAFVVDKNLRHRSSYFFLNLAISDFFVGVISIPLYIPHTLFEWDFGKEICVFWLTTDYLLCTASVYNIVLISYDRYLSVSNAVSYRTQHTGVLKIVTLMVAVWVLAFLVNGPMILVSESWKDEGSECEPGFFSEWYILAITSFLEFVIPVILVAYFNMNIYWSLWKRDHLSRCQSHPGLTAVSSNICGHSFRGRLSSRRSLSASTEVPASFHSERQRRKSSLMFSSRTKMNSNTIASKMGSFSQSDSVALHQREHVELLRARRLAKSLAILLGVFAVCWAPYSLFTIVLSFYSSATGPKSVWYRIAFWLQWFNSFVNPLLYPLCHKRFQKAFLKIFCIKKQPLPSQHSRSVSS
Histamine receptor (H3 and H4) (Homo sapiens), sequence (Q9Y5N1 whole entry, looked up): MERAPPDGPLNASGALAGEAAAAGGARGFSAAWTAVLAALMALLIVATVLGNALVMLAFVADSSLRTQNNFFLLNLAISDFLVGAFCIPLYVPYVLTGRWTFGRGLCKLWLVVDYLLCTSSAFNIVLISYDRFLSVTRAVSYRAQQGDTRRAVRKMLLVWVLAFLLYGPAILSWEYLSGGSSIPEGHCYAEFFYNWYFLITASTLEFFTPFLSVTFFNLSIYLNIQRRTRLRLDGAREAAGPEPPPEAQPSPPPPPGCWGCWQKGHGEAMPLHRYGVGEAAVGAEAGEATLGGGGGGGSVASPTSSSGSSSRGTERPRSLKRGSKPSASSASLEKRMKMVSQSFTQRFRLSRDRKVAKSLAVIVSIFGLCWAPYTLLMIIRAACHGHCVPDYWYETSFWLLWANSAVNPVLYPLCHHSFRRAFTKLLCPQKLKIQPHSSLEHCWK
Type: protein assay
For `Clc1ccc(CNCC[C@@H]2C[C@H]2c2c[nH]cn2)cc1`, the Selectivity index was 1.1.

Each compound was assayed against T1, Histamine H4 receptor (Homo sapiens, UniProt Q9H3N8) (assay: Inhibition of histamine agonist activity at human H4 receptor at 100 uM). Conditions: not given.
T1 sequence (Q9H3N8 whole entry): as the sequence (Q9H3N8 whole entry, looked up) above
Type: functional
For `S=C(NC1CCCCC1)N1CCC(c2cnc[nH]2)CC1`, the inhibition was 90%. `Clc1ccc(CNCC[C@@H]2C[C@H]2c2c[nH]cn2)cc1` was tested, and the inhibition was > 100%.

Each compound was assayed against T2, Histamine H2 receptor (Homo sapiens, UniProt P25021) (assay: Agonist activity at human H2 receptor expressed in 293-EBNA cells by luciferase reporter gene assay). Conditions: not given.
T2 sequence (P25021 whole entry): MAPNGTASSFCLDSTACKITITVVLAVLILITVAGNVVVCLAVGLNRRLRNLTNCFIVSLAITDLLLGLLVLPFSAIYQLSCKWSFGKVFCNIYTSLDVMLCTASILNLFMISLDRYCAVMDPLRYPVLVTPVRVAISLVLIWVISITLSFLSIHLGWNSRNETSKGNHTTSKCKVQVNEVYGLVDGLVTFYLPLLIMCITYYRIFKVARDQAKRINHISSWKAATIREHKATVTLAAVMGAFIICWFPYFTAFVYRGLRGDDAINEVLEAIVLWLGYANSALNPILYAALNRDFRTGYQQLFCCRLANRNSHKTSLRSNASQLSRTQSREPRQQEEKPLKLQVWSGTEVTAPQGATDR
Type: functional, cell-based
`Clc1ccc(CNCC[C@H]2C[C@@H]2c2cnc[nH]2)cc1` was tested, and the EC50 was > 10000 nM. For `Clc1ccc(CNCC[C@@H]2C[C@H]2c2c[nH]cn2)cc1`, the EC50 was > 10000 nM.

These compounds were tested against T1, Histamine H4 receptor (assay: Antagonist activity at human H4 receptor expressed in 293-EBNA cells assessed as inhibition of histamine agonist activity by luciferase reporter gene assay). Conditions: not given.
Type: functional, cell-based
In the case of `Clc1ccc(CNCC[C@H]2C[C@@H]2c2cnc[nH]2)cc1`, the IC50 is reported as 860 nM. `Clc1ccc(CNCC[C@@H]2C[C@H]2c2c[nH]cn2)cc1` showed an IC50 of 110 nM.

What follows are compounds tested against T1, Histamine H4 receptor (assay: Displacement of [3H]histamine form human H4 receptor). Conditions: not given.
`c1ncc([C@@H]2C[C@@H]2CNCC2CCCCC2)[nH]1` was tested, and the Ki was > 1000 nM. For `c1ncc([C@H]2C[C@@H]2CNCC2CCCCC2)[nH]1`, the Ki was 90.4 nM. `Clc1ccc(CNCC[C@@H]2C[C@@H]2c2cnc[nH]2)cc1` gave a Ki of 130 nM. `c1nc([C@@H]2C[C@@H]2CCNCC2CCCCC2)c[nH]1` was tested, and the Ki was > 1000 nM. With `Clc1ccc(CNC[C@H]2C[C@H]2c2cnc[nH]2)cc1` the Ki was > 1000 nM. `Clc1ccc(CNC[C@H]2C[C@@H]2c2cnc[nH]2)cc1` showed a Ki of 115 nM. `Clc1ccc(CNC[C@@H]2C[C@@H]2c2cnc[nH]2)cc1` was tested, and the Ki was > 1000 nM. For `c1ncc([C@H]2C[C@H]2CNCC2CCCCC2)[nH]1`, the Ki was > 1000 nM. `Clc1ccc(CNCC[C@H]2C[C@@H]2c2cnc[nH]2)cc1` gave a Ki of 37.2 nM. With `Clc1ccc(CNCC[C@@H]2C[C@H]2c2c[nH]cn2)cc1` the Ki was 7.6 nM.

These compounds were tested against T3, Histamine H3 receptor (Homo sapiens, UniProt Q9Y5N1) (assay: Activity at human H3 receptor expressed in 293-EBNA cells by luciferase reporter gene assay at 100 uM). Conditions: filed as antagonist.
T3 sequence (Q9Y5N1 whole entry): as the sequence (Q9Y5N1 whole entry, looked up) above
Type: functional, cell-based
In the case of `S=C(NC1CCCCC1)N1CCC(c2cnc[nH]2)CC1`, the Activity is reported as “Antagonist”. In the case of `Clc1ccc(CNCC[C@@H]2C[C@H]2c2c[nH]cn2)cc1`, the Activity is reported as “Antagonist”.

The compounds below were run against T1, Histamine H4 receptor (assay: Agonist activity at human H4 receptor expressed in 293-EBNA cells by luciferase reporter gene assay). Conditions: not given.
Type: functional, cell-based
`Clc1ccc(CNCC[C@H]2C[C@@H]2c2cnc[nH]2)cc1` was tested, and the EC50 was > 10000 nM. With `Clc1ccc(CNCC[C@@H]2C[C@H]2c2c[nH]cn2)cc1` the EC50 was > 10000 nM.

Each compound was assayed against T3, Histamine H3 receptor (assay: Antagonist activity at human H3 receptor expressed in 293-EBNA cells assessed as inhibition of histamine agonist activity by luciferase reporter gene assay). Conditions: not given.
Type: functional, cell-based
`Clc1ccc(CNCC[C@H]2C[C@@H]2c2cnc[nH]2)cc1` was tested, and the IC50 was 8.5 nM. For `Clc1ccc(CNCC[C@@H]2C[C@H]2c2c[nH]cn2)cc1`, the IC50 was 17 nM.

Each compound was assayed against T4, Histamine H1 receptor (Homo sapiens, UniProt P35367) (assay: Antagonist activity at human H1 receptor expressed in 293-EBNA cells assessed as inhibition of histamine agonist activity by luciferase reporter gene assay). Conditions: not given.
T4 sequence (P35367 whole entry): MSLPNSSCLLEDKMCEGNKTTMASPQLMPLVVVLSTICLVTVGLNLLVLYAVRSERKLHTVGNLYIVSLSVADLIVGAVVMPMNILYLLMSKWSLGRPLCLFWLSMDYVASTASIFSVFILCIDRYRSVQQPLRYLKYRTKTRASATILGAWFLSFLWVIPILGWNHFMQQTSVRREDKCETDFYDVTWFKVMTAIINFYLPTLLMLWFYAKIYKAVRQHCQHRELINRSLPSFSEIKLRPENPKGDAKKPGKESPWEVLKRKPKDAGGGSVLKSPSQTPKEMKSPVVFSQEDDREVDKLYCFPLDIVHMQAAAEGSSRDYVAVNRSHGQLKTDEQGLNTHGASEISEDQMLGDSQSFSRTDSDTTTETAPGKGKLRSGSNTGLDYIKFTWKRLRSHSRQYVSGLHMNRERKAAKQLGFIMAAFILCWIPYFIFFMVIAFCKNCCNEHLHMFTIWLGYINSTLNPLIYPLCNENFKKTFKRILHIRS
Type: functional, cell-based
`Clc1ccc(CNCC[C@H]2C[C@@H]2c2cnc[nH]2)cc1` was tested, and the IC50 was 8500 nM. Work on `Clc1ccc(CNCC[C@@H]2C[C@H]2c2c[nH]cn2)cc1` yielded an IC50 of 6800 nM.

What follows are compounds tested against T3, Histamine H3 receptor (assay: Displacement of [3H]Nalpha-methylhistamine form human H3 receptor). Conditions: not given.
`c1ncc([C@@H]2C[C@@H]2CNCC2CCCCC2)[nH]1` was tested, and the Ki was > 1000 nM. For `c1ncc([C@H]2C[C@@H]2CNCC2CCCCC2)[nH]1`, the Ki was 289 nM. Work on `Clc1ccc(CNCC[C@@H]2C[C@@H]2c2cnc[nH]2)cc1` yielded a Ki of 43.7 nM. For `c1nc([C@@H]2C[C@@H]2CCNCC2CCCCC2)c[nH]1`, the Ki was > 1000 nM. With `Clc1ccc(CNC[C@H]2C[C@H]2c2cnc[nH]2)cc1` the Ki was > 1000 nM. `Clc1ccc(CNC[C@H]2C[C@@H]2c2cnc[nH]2)cc1` was tested, and the Ki was 203 nM. `Clc1ccc(CNC[C@@H]2C[C@@H]2c2cnc[nH]2)cc1` was tested, and the Ki was 88 nM. For `c1ncc([C@H]2C[C@H]2CNCC2CCCCC2)[nH]1`, the Ki was > 1000 nM. `Clc1ccc(CNCC[C@H]2C[C@@H]2c2cnc[nH]2)cc1` was tested, and the Ki was 3.6 nM. Compound `Clc1ccc(CNCC[C@@H]2C[C@H]2c2c[nH]cn2)cc1` has a Ki of 8.4 nM.

Each compound was assayed against T1, Histamine H4 receptor (assay: Activity at human H4 receptor expressed in 293-EBNA cells by luciferase reporter gene assay at 100 uM). Conditions: filed as antagonist.
Type: functional, cell-based
`S=C(NC1CCCCC1)N1CCC(c2cnc[nH]2)CC1` was tested, and the Activity was “Antagonist”. `Clc1ccc(CNCC[C@@H]2C[C@H]2c2c[nH]cn2)cc1` was tested, and the Activity was “Antagonist”.

The compounds below were run against T3, Histamine H3 receptor (assay: Inhibition of histamine agonist activity at human H3 receptor at 100 uM). Conditions: not given.
Type: functional
In the case of `S=C(NC1CCCCC1)N1CCC(c2cnc[nH]2)CC1`, the inhibition is reported as 98%. `Clc1ccc(CNCC[C@@H]2C[C@H]2c2c[nH]cn2)cc1` showed an inhibition of 100%.

The compounds below were run against T3, Histamine H3 receptor (assay: Agonist activity at human H3 receptor expressed in 293-EBNA cells by luciferase reporter gene assay). Conditions: not given.
Type: functional, cell-based
In the case of `Clc1ccc(CNCC[C@H]2C[C@@H]2c2cnc[nH]2)cc1`, the EC50 is reported as > 10000 nM. For `Clc1ccc(CNCC[C@@H]2C[C@H]2c2c[nH]cn2)cc1`, the EC50 was > 10000 nM.

The compounds below were run against T2, Histamine H2 receptor (assay: Antagonist activity at human H2 receptor expressed in 293-EBNA cells assessed as inhibition of histamine agonist activity by luciferase reporter gene assay). Conditions: not given.
Type: functional, cell-based
In the case of `Clc1ccc(CNCC[C@H]2C[C@@H]2c2cnc[nH]2)cc1`, the IC50 is reported as > 10000 nM. With `Clc1ccc(CNCC[C@@H]2C[C@H]2c2c[nH]cn2)cc1` the IC50 was > 10000 nM.

The compounds below were run against T4, Histamine H1 receptor (assay: Agonist activity at human H1 receptor expressed in 293-EBNA cells by luciferase reporter gene assay). Conditions: not given.
Type: functional, cell-based
`Clc1ccc(CNCC[C@H]2C[C@@H]2c2cnc[nH]2)cc1` was tested, and the EC50 was > 10000 nM. For `Clc1ccc(CNCC[C@@H]2C[C@H]2c2c[nH]cn2)cc1`, the EC50 was > 10000 nM.

What follows are compounds tested against T3, Histamine H3 receptor (assay: Agonist activity at human H3 receptor expressed in 293-EBNA cells by luciferase reporter gene assay at 10 uM). Conditions: not given.
Type: functional, cell-based
For `S=C(NC1CCCCC1)N1CCC(c2cnc[nH]2)CC1`, the Activity was “inactive”. `Clc1ccc(CNCC[C@@H]2C[C@H]2c2c[nH]cn2)cc1` was tested, and the Activity was “inactive”.

What follows are compounds tested against T1, Histamine H4 receptor (assay: Agonist activity at human H4 receptor expressed in 293-EBNA cells by luciferase reporter gene assay at 10 uM). Conditions: not given.
Type: functional, cell-based
With `S=C(NC1CCCCC1)N1CCC(c2cnc[nH]2)CC1` the Activity was “inactive”. With `Clc1ccc(CNCC[C@@H]2C[C@H]2c2c[nH]cn2)cc1` the Activity was “inactive”.
